This is an account of results in patent publication US6653300B2, “Pyrazole compounds useful as protein kinase inhibitors” (Vertex Pharmaceuticals Incorporated, priority 2000, dated 2003).

The target of one data set is T1, Aurora-2 (Homo sapiens, UniProt O14965).
T1 sequence (O14965 1-403): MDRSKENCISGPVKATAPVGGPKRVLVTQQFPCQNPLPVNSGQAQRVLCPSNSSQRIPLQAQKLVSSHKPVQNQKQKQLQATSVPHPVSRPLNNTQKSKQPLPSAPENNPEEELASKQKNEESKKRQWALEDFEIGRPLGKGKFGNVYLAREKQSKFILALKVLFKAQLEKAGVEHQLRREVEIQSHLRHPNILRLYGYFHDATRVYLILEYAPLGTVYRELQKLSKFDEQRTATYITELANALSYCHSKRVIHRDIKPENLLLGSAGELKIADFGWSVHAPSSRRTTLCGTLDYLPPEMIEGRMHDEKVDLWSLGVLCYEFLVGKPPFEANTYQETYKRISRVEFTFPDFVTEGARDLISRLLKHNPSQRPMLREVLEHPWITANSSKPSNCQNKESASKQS
Briefly: Ki determination for the inhibition of Aurora-2 (coupled enzyme assay). The data set is classed as biochemical. As to conditions: 70 nM Aurora-2, 30° C. As to the method: Compounds were screened in the following manner for their ability to inhibit Aurora-2 using a standard coupled enzyme assay (Fox et al (1998) Protein Sci 7, 2249).
To an assay stock buffer solution containing 0.1M HEPES 7.5, 10 mM MgCl2, 1 mM DTT, 25 mM NaCl, 2.5 mM phosphoenolpyruvate, […], 30 mg/ml pyruvate kinase, 10 mg/ml lactate dehydrogenase, […], and 800 μM peptide (LRRASLG, American Peptide, Sunnyvale, Calif.) was added a DMSO solution of a compound of the present invention to a final concentration of 30 μM. The resulting mixture was incubated at 30° C. for 10 min. The reaction was initiated by the addition of 10 μL of Aurora-2 stock solution to give a final concentration of 70 nM in the assay. The rates of reaction were obtained by monitoring absorbance at 340 nm over a 5 minute read time at 30° C. using a BioRad Ultramark plate reader (Hercules, Calif.). The Ki values were determined from the rate data as a function of inhibitor concentration.

Another data set has as its target T2, GSK-3β (AA 1-420) (Homo sapiens, UniProt P49841).
T2 construct: GSK-3β (AA 1-420)
The data set is described as follows: Ki determination for the inhibition of GSK-3 (coupled enzyme system). The data set is classed as biochemical. The following applies: 20 μM ATP, 20 nM GSK-3β, 30° C. Put shortly: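 GSK-3β (AA 1-420, 20 nM) was run in a pyruvate kinase/LDH-coupled NADH assay in 100 mM HEPES pH 7.5, 10 mM MgCl2, 25 mM NaCl, 1 mM DTT, 1.5% DMSO, with 300 μM phosphopeptide substrate. Compound (0.002–30 μM) was preincubated 10 min at 30° C, then 20 μM ATP was added.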

Broadly, the Ki is a measure of affinity in units of concentration, obtained from inhibition or displacement. A high value points to weaker binding. Usually melting point stands for the temperature, or range, at which the solid turns liquid.

Structures are written as SMILES. A value given as a limit tells only on which side of the number the result lay.

T2 sequence (P49841 whole entry, the tested form may be a part): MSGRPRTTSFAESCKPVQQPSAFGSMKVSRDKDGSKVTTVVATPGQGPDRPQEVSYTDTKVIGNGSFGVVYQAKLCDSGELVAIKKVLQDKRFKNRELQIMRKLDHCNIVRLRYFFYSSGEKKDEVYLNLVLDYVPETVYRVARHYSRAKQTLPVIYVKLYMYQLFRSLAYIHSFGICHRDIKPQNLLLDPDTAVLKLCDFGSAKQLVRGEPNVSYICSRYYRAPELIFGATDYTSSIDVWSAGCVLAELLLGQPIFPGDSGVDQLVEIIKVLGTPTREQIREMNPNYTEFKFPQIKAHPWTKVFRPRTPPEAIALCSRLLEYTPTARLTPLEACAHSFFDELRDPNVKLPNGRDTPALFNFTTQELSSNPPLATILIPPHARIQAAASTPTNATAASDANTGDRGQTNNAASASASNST

For `CCCc1ccc(Nc2nc(Nc3cc(C4CC4)n[nH]3)c3ccccc3n2)cc1` [IIc-26, (5-Cyclopropyl-2H-pyrazol-3-yl)-[2-(4-propylphenylamino)-quinazolin-4-yl]-amine], the melting point was in the range of 255 to 256 °C. Further, at Aurora-2, the Ki is below 100 nM. On GSK-3β (AA 1-420), the Ki fell in the range of 100 to 1000 nM.
Taken in the same sequence, the figures for `c1ccc(CCCNc2nc(Nc3cc(C4CC4)[nH]n3)c3ccccc3n2)cc1` [IIc-47, (5-Cyclopropyl-2H-pyrazol-3-yl)-[2-(3-phenylprop-1-ylamino)-quinazolin-4-yl]-amine] were 189 °C, below 100 nM and 100 to 1000 nM.
`Cc1cc(Nc2nc(Nc3ccccc3CCO)nc3ccccc23)n[nH]1` [IIc-14, {2-[2-(2-Hydroxyethyl)phenylamino]-quinazolin-4-yl}-(5-methyl-2H-pyrazol-3-yl)-amine] registered a melting point of 222 °C. Further, at Aurora-2, the Ki fell in the range of 100 to 1000 nM. The Ki on GSK-3β (AA 1-420) fell in the range of 100 to 1000 nM.
`COc1cccc2c(Nc3cc(C)[nH]n3)nc(Sc3ccc(NS(C)(=O)=O)cc3)nc12` [IIa-66, [8-Methoxy-2-(4-methylsulfonylamino-phenylsulfanyl)-quinazolin-4-yl]-(5-methyl-2H-pyrazol-3-yl)-amine] yielded a melting point of 275 to 277 °C. Also, the Ki at Aurora-2 was below 100 nM. Further, the Ki at GSK-3β (AA 1-420) was in the range of 100 to 1000 nM.
For `Cc1cc(Nc2nc(Nc3cccc(CO)c3)nc3ccccc23)n[nH]1` [IIc-16, [2-(3-Hydroxymethylphenylamino)-quinazolin-4-yl]-(5-methyl-2H-pyrazol-3-yl)-amine], the melting point is above 250 °C. The Ki on Aurora-2 was below 100 nM. Further, the Ki at GSK-3β (AA 1-420) was 100 to 1000 nM.
For `CC(=O)Nc1ccc(Sc2nc(Nc3cc(C)n[nH]3)cc(-c3ccc(OCCCN(C)C)cc3)n2)cc1` [IIIa-43, {2-(4-Acetamido-phenyl-sulfanyl)-6-[4-(3-dimethylamino-propoxy)-phenyl]-pyrimidin-4-yl}-(5-methyl-2H-pyrazol-3-yl)-amine], in that order: 219 to 222 °C, 1000 to 10000 nM and 1000 to 7000 nM.
As for `Cc1cc(Nc2nc(Sc3cccc(Br)c3)nc3ccccc23)n[nH]1` [IIa-47, [2-(3-Bromophenylsulfanyl)-quinazolin-4-yl]-(5-methyl-2H-pyrazol-3-yl)-amine], the melting point fell in the range of 280 to 281 °C. Besides, the Ki at Aurora-2 is below 100 nM. Moreover, the Ki on GSK-3β (AA 1-420) is below 100 nM.
For `O=C(O)COc1ccc(Nc2nc(Nc3cc(C4CC4)[nH]n3)c3ccccc3n2)cc1` [IIc-30, [2-(4-Carboxymethoxyphenylamino)-quinazolin-4-yl]-(5-cyclopropyl-2H-pyrazol-3-yl)-amine], the melting point is above 250 °C. The compound further yielded a Ki at Aurora-2 below 100 nM. At GSK-3β (AA 1-420), this compound registered a Ki below 100 nM.
`COc1ccc(Nc2nc(Nc3cc(C4CC4)[nH]n3)c3ccccc3n2)cn1` [IIc-20, (5-Cyclopropyl-2H-pyrazol-3-yl)-[2-(6-methoxypyridin-3-ylamino)-quinazolin-4-yl]-amine] came in with a melting point of 120 °C. Besides, the Ki on Aurora-2 is below 100 nM. Further, the Ki at GSK-3β (AA 1-420) is below 100 nM.
In the case of `COc1cccc2c(Nc3cc(C4CC4)[nH]n3)nc(Sc3ccc(NC(C)=O)cc3)nc12` [IIa-72, [2-(4-Acetamido-phenylsulfanyl)-8-methoxy-quinazolin-4-yl]-(5-cyclopropyl-2H-pyrazol-3-yl)-amine], the melting point lay in the range of 265 to 268 °C. The Ki at Aurora-2 was below 100 nM. The compound also showed a Ki on GSK-3β (AA 1-420) of 1000 to 7000 nM.
`Cc1cc(Nc2nc(Nc3ccc(Br)cc3)nc3ccccc23)n[nH]1` [IIc-67, [2-(4-Bromophenylamino)-quinazolin-4-yl]-(5-methyl-2H-pyrazol-3-yl)-amine] showed a melting point of 290 to 293 °C. Also, on Aurora-2, the Ki was below 100 nM. On GSK-3β (AA 1-420), this compound came in with a Ki below 100 nM.
In turn, `Cc1cc(Nc2nc(NCc3ccccc3)nc3ccccc23)n[nH]1` [IIc-5, (2-Benzylamino-quinazolin-4-yl)-(5-methyl-2H-pyrazol-3-yl)-amine] came in with a melting point of 225 to 227 °C. The Ki on Aurora-2 was below 100 nM. In addition, on GSK-3β (AA 1-420), the Ki was 100 to 1000 nM.
Taken in the same sequence, the figures for `c1ccc2[nH]c(Sc3nc(Nc4cc(C5CC5)[nH]n4)c4ccccc4n3)nc2c1` [IIa-34, [2-(Benzimidazol-2-ylsulfanyl)-quinazolin-4-yl]-(5-cyclopropyl-2H-pyrazol-3-yl)-amine] were 201 to 203 °C, below 100 nM and 100 to 1000 nM.
Taken in the same sequence, the figures for `Cc1cc(Nc2nc(Nc3ccc(C#N)cc3)nc3ccccc23)n[nH]1` [IIc-61, [2-(4-Cyanophenylamino)-quinazolin-4-yl]-(5-methyl-2H-pyrazol-3-yl)-amine] were 293 to 298 °C, below 100 nM and below 100 nM.
Take `CC(=O)Nc1ccc(Nc2nc(Nc3cc(C)[nH]n3)c3ccccc3n2)cc1C#N` [IIc-57, [2-(4-Acetamido-3-cyanophenylamino)-quinazolin-4-yl]-(5-methyl-2H-pyrazol-3-yl)-amine]: the melting point was in the range of 294 to 296 °C. On Aurora-2, this compound registered a Ki below 100 nM. The compound further showed a Ki at GSK-3β (AA 1-420) of 100 to 1000 nM.
For `c1ccc2cc(Sc3nc4c(c(Nc5cc(C6CC6)[nH]n5)n3)CCCC4)ccc2c1` [IIa-29, (5-Cyclopropyl-2H-pyrazol-3-yl)-[2-(naphthalen-2-ylsulfanyl)-5,6,7,8-tetrahydroquinazolin-4-yl-]-amine], in that order: 244 °C, below 100 nM and 100 to 1000 nM.
In turn, `Cc1cc(Nc2nc(Sc3ccc(NC(=O)CCCN4CCOCC4)cc3)nc3ccccc23)n[nH]1` [IIa-64, (5-Methyl-2H-pyrazol-3-yl)-{2-[4-(4-morpholin-4-yl-butyrylamino)-phenylsulfanyl]-quinazolin-4-yl}-amine] registered a melting point of 240 to 243 °C. The compound also registered a Ki at Aurora-2 below 100 nM. The compound further gave a Ki at GSK-3β (AA 1-420) of 1000 to 7000 nM.
Taken in the same sequence, the figures for `Cc1cc(Nc2nc(Nc3ccc(C)c(C)c3)nc3ccccc23)n[nH]1` [IIc-54, [2-(3,4-Dimethylphenylamino)-quinazolin-4-yl]-(5-methyl-2H-pyrazol-3-yl)-amine] were 249 to 251 °C, below 100 nM and 100 to 1000 nM.
For `Cc1cc(Nc2nc(Nc3ccc(Cl)cc3)nc3ccccc23)n[nH]1` [IIc-12, [2-(4-Chlorophenylamino)-quinazolin-4-yl]-(5-methyl-2H-pyrazol-3-yl)-amine], the melting point was above 250 °C. The compound also came in with a Ki at Aurora-2 below 100 nM. The compound also yielded a Ki at GSK-3β (AA 1-420) below 100 nM.
In the case of `Cc1cc(Nc2nc(Oc3ccc4c(c3)OCO4)nc3ccccc23)n[nH]1` [IIb-8, [2-(Benzo[1,3]dioxol-5-yloxy)-quinazolin-4-yl]-(5-methyl-2H-pyrazol-3-yl)-amine], the melting point is 296 to 299 °C (dec.). Further, on Aurora-2, the Ki was below 100 nM. Also, the Ki on GSK-3β (AA 1-420) was below 100 nM.
Consider `c1ccc(-c2cccc(Nc3nc(Nc4cc(C5CC5)[nH]n4)c4ccccc4n3)c2)cc1` [IIc-46, [2-(Biphenyl-3-ylamino)-quinazolin-4-yl]-(5-cyclopropyl-2H-pyrazol-3-yl)-amine], for which the melting point turned out to be 153 °C. The compound also returned an inhibition constant Ki on Aurora-2 below 100 nM.
Taken in the same sequence, the figures for `COc1cccc(Oc2nc(Nc3cc(C)[nH]n3)c3ccccc3n2)c1` [IIb-6, [2-(3-Methoxyphenoxy)-quinazolin-4-yl]-(5-methyl-2H-pyrazol-3-yl)-amine] were 277 to 278 °C and below 100 nM.
Taken in the same sequence, the figures for `CC(=O)Nc1ccc(Sc2nc(Nc3cc(C)[nH]n3)c3ccc(N)cc3n2)cc1` [IIa-59, [2-(4-Acetamido-phenylsulfanyl)-7-aminoquinazolin-4-yl]-(5-methyl-2H-pyrazol-3-yl)-amine] were 264 to 265 °C and below 100 nM.
Taken in the same sequence, the figures for `Cc1cc(Nc2nc(Sc3ccc(NC(=O)CC(C)C)cc3)nc3ccccc23)n[nH]1` [IIa-57, [2-(4-Isobutanecarbonylamino-phenylsulfanyl)-quinazolin-4-yl]-(5-methyl-2H-pyrazol-3-yl)-amine] were 281 to 282 °C and below 100 nM.
Take `CC(=O)Nc1ccc(Sc2nc(Nc3cc(C)[nH]n3)c3ccc(OCCCN(C)C)cc3n2)cc1` [IIa-75, [2-(4-Acetamidophenylsulfanyl)-7-(3-dimethylamino-propoxy)-quinazolin-4-yl]-(5-methyl-2H-pyrazol-3-yl)-amine]: the melting point fell in the range of 249 to 250 °C. In addition, the Ki on Aurora-2 was below 100 nM.
